# Key:
# Format in all cases: in vivo
# [1] = test system: barnyardgrass (Echinochloa crus-galli); experiment: Test A pre-/postemergence: barnyardgrass; conditions: for Barnyardgrass plant response rating: Postemergence; for Plant response rating, Barnyardgrass: Preemergence
# In short: (§1)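 Rating scale 0–100 (100 = complete control), visual, ~10 days after application in the greenhouse. Applications: preemergence directed soil spray; postemergence at 1–2 leaves.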
# [2] = test system: crabgrass, large (large crabgrass, Digitaria sanguinalis); experiment: Test A pre-/postemergence: crabgrass, large; conditions: for Crabgrass, Large plant response rating: Postemergence; for Plant response rating, Crabgrass, Large: Preemergence
# In short: as §1
# [3] = test system: foxtail, giant (giant foxtail, Setaria faberii); experiment: Test A pre-/postemergence: foxtail, giant; conditions: for Foxtail, Giant plant response rating: Postemergence; for Plant response rating, Foxtail, Giant: Preemergence
# In short: as §1
# [4] = test system: morningglory (Ipomoea spp.); experiment: Test A pre-/postemergence: morningglory; conditions: for Morningglory plant response rating: Postemergence; for Plant response rating, Morningglory: Preemergence
# In short: as §1
# [5] = test system: pigweed (Amaranthus retroflexus); experiment: Test A pre-/postemergence: pigweed; conditions: for Pigweed plant response rating: Postemergence; for Plant response rating, Pigweed: Preemergence
# In short: as §1
# [6] = test system: velvetleaf (Abutilon theophrasti); experiment: Test A pre-/postemergence: velvetleaf; conditions: for Velvetleaf plant response rating: Postemergence; for Plant response rating, Velvetleaf: Preemergence
# In short: as §1
# [7] = test system: wheat (Triticum aestivum); experiment: Test A pre-/postemergence: wheat; conditions: for Wheat plant response rating: Postemergence; for Plant response rating, Wheat: Preemergence
# In short: as §1
# [8] = test system: corn (Zea mays); experiment: Test A pre-/postemergence: corn; conditions: for Corn plant response rating: Postemergence; for Plant response rating, Corn: Preemergence
# In short: as §1
# [9] = test system: rice (Oryza sativa); experiment: Test C flooded paddy test: rice; conditions: scale 0 to 100 (0 no effect, 100 complete control)
# In short: (§2)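 Plants were grown to the 2-leaf stage, pots flooded to 3 cm above soil, and test compounds applied directly to the paddy water, with that depth held throughout. After 13 to 15 days in a greenhouse, injury was visually rated against controls on a 0 (no effect) to 100 (complete control) scale.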
# [10] = test system: sedge, umbrella (small-flower umbrella sedge, Cyperus difformis); experiment: Test C flooded paddy test: sedge, umbrella; conditions: scale 0 to 100 (0 no effect, 100 complete control)
# In short: as §2
# [11] = test system: ducksalad (Heteranthera limosa); experiment: Test C flooded paddy test: ducksalad; conditions: scale 0 to 100 (0 no effect, 100 complete control)
# In short: as §2
# [12] = test system: barnyardgrass (Echinochloa crus-galli); experiment: Test C flooded paddy test: barnyardgrass; conditions: scale 0 to 100 (0 no effect, 100 complete control)
# In short: as §2
# [13] = 125 g ai/ha, 0 to 100 scale, 0 is no effect, 100 is complete control
# [14] = 500 g ai/ha, visual rating on 0 to 100 scale (0 no effect, 100 complete control), approximately ten days
# [15] = 125 g ai/ha, 0 to 100 scale (0 no effect, 100 complete control)
# [16] = 500 g ai/ha, 0 to 100 scale, 0 is no effect, 100 is complete control
# [17] = Flood (flooded paddy test), 62 g ai/ha, visual rating after 13 to 15 days
# [18] = Flood (flooded paddy test), 125 g ai/ha, visual rating after 13 to 15 days
# [19] = Flood (flooded paddy test), 250 g ai/ha, visual rating after 13 to 15 days
structure (smiles),measurement,setting,value
Cc1nn(-c2ccccc2[N+](=O)[O-])nc1C(=O)c1cccc(C(F)(F)F)c1 [Compound 63],Barnyardgrass plant response rating,[1]; [13],0
same,Barnyardgrass plant response rating,[1]; [14],0
same,"Plant response rating, Barnyardgrass",[1]; [15],0
same,"Plant response rating, Barnyardgrass",[1]; [16],0
same,"Crabgrass, Large plant response rating",[2]; [13],0
same,"Crabgrass, Large plant response rating",[2]; [14],0
same,"Plant response rating, Crabgrass, Large",[2]; [15],0
same,"Plant response rating, Crabgrass, Large",[2]; [16],0
same,"Foxtail, Giant plant response rating",[3]; [13],0
same,"Foxtail, Giant plant response rating",[3]; [14],0
same,"Plant response rating, Foxtail, Giant",[3]; [15],0
same,"Plant response rating, Foxtail, Giant",[3]; [16],0
same,Morningglory plant response rating,[4]; [13],0
same,Morningglory plant response rating,[4]; [14],0
same,"Plant response rating, Morningglory",[4]; [15],0
same,"Plant response rating, Morningglory",[4]; [16],0
same,Pigweed plant response rating,[5]; [13],0
same,Pigweed plant response rating,[5]; [14],10
same,"Plant response rating, Pigweed",[5]; [15],0
same,"Plant response rating, Pigweed",[5]; [16],0
same,Velvetleaf plant response rating,[6]; [13],0
same,Velvetleaf plant response rating,[6]; [14],0
same,"Plant response rating, Velvetleaf",[6]; [15],0
same,"Plant response rating, Velvetleaf",[6]; [16],0
same,Wheat plant response rating,[7]; [13],0
same,Wheat plant response rating,[7]; [14],0
same,"Plant response rating, Wheat",[7]; [15],0
same,"Plant response rating, Wheat",[7]; [16],0
same,Corn plant response rating,[8]; [13],0
same,Corn plant response rating,[8]; [14],0
same,"Plant response rating, Corn",[8]; [15],0
same,"Plant response rating, Corn",[8]; [16],0
same,"Plant response rating, Rice",[9]; [17],0
same,"Plant response rating, Rice",[9]; [18],0
same,"Plant response rating, Rice",[9]; [19],0
same,"Plant response rating, Rice","[9]; Flood, 31 g ai/ha",0
same,"Plant response rating, Sedge, Umbrella",[10]; [17],0
same,"Plant response rating, Sedge, Umbrella",[10]; [18],0
same,"Plant response rating, Sedge, Umbrella",[10]; [19],0
same,"Plant response rating, Sedge, Umbrella","[10]; Flood, 31 g ai/ha",0
same,"Plant response rating, Ducksalad",[11]; [17],0
same,"Plant response rating, Ducksalad",[11]; [18],0
same,"Plant response rating, Ducksalad",[11]; [19],0
same,"Plant response rating, Ducksalad","[11]; Flood, 31 g ai/ha",0
same,"Plant response rating, Barnyardgrass",[12]; [17],0
same,"Plant response rating, Barnyardgrass",[12]; [18],0
same,"Plant response rating, Barnyardgrass",[12]; [19],0
same,"Plant response rating, Barnyardgrass","[12]; Flood, 31 g ai/ha",0
Cc1nn(-c2cncc(C(F)(F)F)c2)nc1C(=O)c1cccc(C(F)(F)F)c1 [Compound 66],Barnyardgrass plant response rating,[1]; [13],0
same,Barnyardgrass plant response rating,[1]; [14],10
same,"Plant response rating, Barnyardgrass",[1]; [15],0
same,"Plant response rating, Barnyardgrass",[1]; [16],0
same,"Crabgrass, Large plant response rating",[2]; [13],10
same,"Crabgrass, Large plant response rating",[2]; [14],10
same,"Plant response rating, Crabgrass, Large",[2]; [15],10
same,"Plant response rating, Crabgrass, Large",[2]; [16],50
same,"Foxtail, Giant plant response rating",[3]; [13],0
same,"Foxtail, Giant plant response rating",[3]; [14],10
same,"Plant response rating, Foxtail, Giant",[3]; [15],10
same,"Plant response rating, Foxtail, Giant",[3]; [16],70
same,Morningglory plant response rating,[4]; [13],0
same,Morningglory plant response rating,[4]; [14],10
same,"Plant response rating, Morningglory",[4]; [15],0
same,"Plant response rating, Morningglory",[4]; [16],0
same,Pigweed plant response rating,[5]; [13],10
same,Pigweed plant response rating,[5]; [14],30
same,"Plant response rating, Pigweed",[5]; [15],0
same,"Plant response rating, Pigweed",[5]; [16],10
same,Velvetleaf plant response rating,[6]; [13],0
same,Velvetleaf plant response rating,[6]; [14],10
same,"Plant response rating, Velvetleaf",[6]; [15],0
same,"Plant response rating, Velvetleaf",[6]; [16],0
same,Wheat plant response rating,[7]; [13],0
same,Wheat plant response rating,[7]; [14],10
same,"Plant response rating, Wheat",[7]; [15],0
same,"Plant response rating, Wheat",[7]; [16],0
same,Corn plant response rating,[8]; [13],0
same,Corn plant response rating,[8]; [14],10
same,"Plant response rating, Corn",[8]; [15],0
same,"Plant response rating, Corn",[8]; [16],0
same,"Plant response rating, Rice",[9]; [17],0
same,"Plant response rating, Rice",[9]; [19],0
same,"Plant response rating, Sedge, Umbrella",[10]; [17],0
same,"Plant response rating, Sedge, Umbrella",[10]; [19],0
same,"Plant response rating, Ducksalad",[11]; [17],0
same,"Plant response rating, Ducksalad",[11]; [19],0
same,"Plant response rating, Barnyardgrass",[12]; [17],0
same,"Plant response rating, Barnyardgrass",[12]; [19],0
Cc1nn(-c2cccc(C(F)(F)F)c2)nc1Oc1cccc(C(F)(F)F)c1 [Compound 70],Barnyardgrass plant response rating,[1]; [13],0
same,Barnyardgrass plant response rating,[1]; [14],10
same,"Plant response rating, Barnyardgrass",[1]; [15],0
same,"Plant response rating, Barnyardgrass",[1]; [16],0
same,"Crabgrass, Large plant response rating",[2]; [13],10
same,"Crabgrass, Large plant response rating",[2]; [14],30
same,"Plant response rating, Crabgrass, Large",[2]; [15],0
same,"Plant response rating, Crabgrass, Large",[2]; [16],40
same,"Foxtail, Giant plant response rating",[3]; [13],10
same,"Foxtail, Giant plant response rating",[3]; [14],20
same,"Plant response rating, Foxtail, Giant",[3]; [15],0
same,"Plant response rating, Foxtail, Giant",[3]; [16],50
same,Morningglory plant response rating,[4]; [13],10
same,Morningglory plant response rating,[4]; [14],20
same,"Plant response rating, Morningglory",[4]; [15],0
same,"Plant response rating, Morningglory",[4]; [16],0
same,Pigweed plant response rating,[5]; [13],40
same,Pigweed plant response rating,[5]; [14],100
same,"Plant response rating, Pigweed",[5]; [15],0
same,"Plant response rating, Pigweed",[5]; [16],10
same,Velvetleaf plant response rating,[6]; [13],10
same,Velvetleaf plant response rating,[6]; [14],50
same,"Plant response rating, Velvetleaf",[6]; [15],0
same,"Plant response rating, Velvetleaf",[6]; [16],0
same,Wheat plant response rating,[7]; [13],0
same,Wheat plant response rating,[7]; [14],10
same,"Plant response rating, Wheat",[7]; [15],0
same,"Plant response rating, Wheat",[7]; [16],0
same,Corn plant response rating,[8]; [13],10
same,Corn plant response rating,[8]; [14],20
same,"Plant response rating, Corn",[8]; [15],0
same,"Plant response rating, Corn",[8]; [16],0
same,"Plant response rating, Rice",[9]; [17],0
same,"Plant response rating, Rice",[9]; [18],0
same,"Plant response rating, Rice",[9]; [19],0
same,"Plant response rating, Rice","[9]; Flood, 31 g ai/ha",0
same,"Plant response rating, Sedge, Umbrella",[10]; [17],0
same,"Plant response rating, Sedge, Umbrella",[10]; [18],0
same,"Plant response rating, Sedge, Umbrella",[10]; [19],0
same,"Plant response rating, Sedge, Umbrella","[10]; Flood, 31 g ai/ha",0
same,"Plant response rating, Ducksalad",[11]; [17],0
same,"Plant response rating, Ducksalad",[11]; [18],0
same,"Plant response rating, Ducksalad",[11]; [19],0
same,"Plant response rating, Ducksalad","[11]; Flood, 31 g ai/ha",0
same,"Plant response rating, Barnyardgrass",[12]; [17],0
same,"Plant response rating, Barnyardgrass",[12]; [18],0
same,"Plant response rating, Barnyardgrass",[12]; [19],0
same,"Plant response rating, Barnyardgrass","[12]; Flood, 31 g ai/ha",0

# From patent publication US9302999B2, “Substituted triazoles as herbicides” (E. I. DU PONT DE NEMOURS AND COMPANY, priority 2012, dated 2016)
